# According to ChEMBL document CHEMBL1201862, “PubChem BioAssay data set” (2004):
# Activity calls are given as the source filed them.
# Legend:
# [1] = LGR2 antagonists, dose response, cell-based, HEK293, CRE-luciferase reporter, cherry pick, set 2 (AID 743343); format: functional;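 note: transfected cells were stimulated with diluted bursicon conditioned medium after compound addition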
# [2] = A549 cell cytotoxicity, dose response, cytotoxicity control, plate reader, cherry-pick, antagonist series (AID 743412); format: functional, cell-based
# [3] = MC4R antagonists, dose response, counter-screen for LGR2 antagonist project, cell-based, plate reader, cherry pick (AID 743444); format: functional;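 note: transfected HEK 293 cells stimulated with alpha-MSH peptide; potency of inhibitors of the alpha-MSH evoked signal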
# [4] = HEK293 cell cytotoxicity, dose response, cytotoxicity control, plate reader, cherry-picked samples (AID 743446); format: functional, cell-based
# [5] = biological target: T1, Adenosylmethionine-8-amino-7-oxononanoate aminotransferase (Mycobacterium tuberculosis, UniProt P9WQ81); test: Mycobacterium tuberculosis BioA enzyme inhibitor Measured in Biochemical System Using Plate Reader - 2163-02_Inhibitor_Dose_CherryPick_Activity.; format: functional, Mycobacterium tuberculosis UT205
# T1 sequence (P9WQ81 whole entry): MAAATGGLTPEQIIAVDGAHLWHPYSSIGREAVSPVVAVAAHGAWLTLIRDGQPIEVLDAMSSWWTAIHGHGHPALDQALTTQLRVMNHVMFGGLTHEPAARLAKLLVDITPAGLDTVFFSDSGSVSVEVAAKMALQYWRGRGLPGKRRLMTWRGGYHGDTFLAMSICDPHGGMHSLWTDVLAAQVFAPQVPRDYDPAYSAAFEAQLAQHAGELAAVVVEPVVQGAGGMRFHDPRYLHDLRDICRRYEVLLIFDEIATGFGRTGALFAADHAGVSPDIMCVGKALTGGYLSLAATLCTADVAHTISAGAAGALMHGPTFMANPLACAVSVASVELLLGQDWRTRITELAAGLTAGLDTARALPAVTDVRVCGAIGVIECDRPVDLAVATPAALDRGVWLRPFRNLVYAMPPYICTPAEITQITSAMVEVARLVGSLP
# H4 = test: Luminescence Cell-Based Dose Response HTS to Identify Activators of 5'UTR Stem-Loop Driven Prion Protein mRNA Translation in H4 Neuroglioblastoma Cells. [Related pubchem assays: 1829 (Project Summary), 1814 (Primary HTS)]; format: functional; conditions: Homo sapiens
# [6] = Luminescence Cell-Based Dose Confirmation HTS to Identify Activators of 5'UTR Stem-Loop Driven Alpha-Synuclein mRNA Translation in H4 Neuroglioblastoma Cells. [Related pubchem assays: 1829 (Project Summary), 1814 (Primary HTS)]; format: functional
# [7] = Luminescence Cell-Based Dose Response HTS to Identify Activators of Luciferase Translation or Activity in H4 […] Cells. [Related pubchem assays: 1829 (Project Summary), 1814 (Primary HTS)]; format: functional
# H9c2 = test: cells; format: functional, cell-based; conditions: Rattus norvegicus, H9c2, Myocardium;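 note: confirmatory concentration-response retest of ultra-high-throughput screening hits for modulation of myocardial damage; cell death induced by hydrogen peroxide oxidative stress; compound pretreatment for 60 min then peroxide exposure for 2 h; potency is for protecting the cells against peroxide damage rather than for killing them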
# [8] = biological target: T2, Zinc finger protein mex-5 (Caenorhabditis elegans, UniProt Q9XUB2); test: MEX-5/TCR-2 RNA interaction inhibitors, dose response, biochemical, C. elegans, fluorescence polarization (AID 1960)
# T2 sequence (Q9XUB2 whole entry): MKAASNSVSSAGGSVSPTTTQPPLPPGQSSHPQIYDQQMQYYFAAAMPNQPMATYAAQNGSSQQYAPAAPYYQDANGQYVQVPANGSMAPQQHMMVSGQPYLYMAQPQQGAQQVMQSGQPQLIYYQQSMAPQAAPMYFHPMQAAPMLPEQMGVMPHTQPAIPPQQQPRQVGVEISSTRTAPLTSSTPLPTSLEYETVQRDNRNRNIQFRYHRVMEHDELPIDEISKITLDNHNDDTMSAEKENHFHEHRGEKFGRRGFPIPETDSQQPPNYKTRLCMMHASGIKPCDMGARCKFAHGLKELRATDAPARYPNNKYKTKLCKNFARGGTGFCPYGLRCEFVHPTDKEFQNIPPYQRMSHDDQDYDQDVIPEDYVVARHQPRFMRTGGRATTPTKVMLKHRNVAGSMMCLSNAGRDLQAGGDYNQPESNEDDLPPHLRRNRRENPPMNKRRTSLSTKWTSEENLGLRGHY
# [9] = biological target: T3, Long-chain-fatty-acid--AMP ligase FadD28 (Mycobacterium tuberculosis, UniProt P9WQ59); test: Fluorescence polarization aasay to screen for inhibitors that compete for the binding of FadD28 to a bisubstrate Measured in Biochemical System Using Plate Reader - 2147-01_Inhibitor_Dose_CherryPick_Activity.; format: functional, Mycobacterium tuberculosis H37Rv
# T3 sequence (P9WQ59 whole entry): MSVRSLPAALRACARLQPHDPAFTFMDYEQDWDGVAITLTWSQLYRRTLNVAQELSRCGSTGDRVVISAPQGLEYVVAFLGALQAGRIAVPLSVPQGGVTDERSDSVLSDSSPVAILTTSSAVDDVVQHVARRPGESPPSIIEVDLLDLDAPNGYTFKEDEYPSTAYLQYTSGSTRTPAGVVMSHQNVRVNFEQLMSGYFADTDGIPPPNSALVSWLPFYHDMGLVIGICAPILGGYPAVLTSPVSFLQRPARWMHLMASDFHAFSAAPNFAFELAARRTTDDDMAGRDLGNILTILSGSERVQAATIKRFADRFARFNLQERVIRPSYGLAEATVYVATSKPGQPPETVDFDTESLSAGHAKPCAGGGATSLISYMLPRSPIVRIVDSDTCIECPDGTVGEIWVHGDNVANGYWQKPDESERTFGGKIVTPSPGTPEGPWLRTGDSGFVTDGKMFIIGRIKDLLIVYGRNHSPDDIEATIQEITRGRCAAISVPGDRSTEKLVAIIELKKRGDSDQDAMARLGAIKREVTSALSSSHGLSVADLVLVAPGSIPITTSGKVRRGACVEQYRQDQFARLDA
# [10] = biological target: T4, RNA-binding protein pos-1 (Caenorhabditis elegans, UniProt G5EF15); test: inhibitors of POS-1/mex-3 RNA binding, dose response, biochemical, fluorescence polarization (AID 1964);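 note: purified POS-1 fused to maltose binding protein made in E. coli; potency of compounds blocking POS-1 binding to fluorescent RNA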
# T4 sequence (G5EF15 whole entry): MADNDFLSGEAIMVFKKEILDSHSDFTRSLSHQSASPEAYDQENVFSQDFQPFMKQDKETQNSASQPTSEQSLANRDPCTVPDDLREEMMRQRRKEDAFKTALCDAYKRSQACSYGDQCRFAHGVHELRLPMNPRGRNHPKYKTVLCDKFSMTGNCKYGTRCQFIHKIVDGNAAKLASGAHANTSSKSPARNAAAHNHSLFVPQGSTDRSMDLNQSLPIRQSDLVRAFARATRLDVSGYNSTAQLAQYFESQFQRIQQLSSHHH
# [11] = Luminescence Cell-Based Dose Response HTS to Identify Inhibitors of 5'UTR Stem-Loop Driven Prion Protein mRNA Translation in H4 Neuroglioblastoma Cells. [Related pubchem assays: 1827 (Project Summary), 1813 (Primary HTS)]; format: functional
# [12] = biological target: Voltage-dependent T-type calcium channel subunit alpha-1H (Homo sapiens, UniProt O95180); format: functional;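 note: channel activity triggered by adding a high calcium stimulation buffer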
# Chain of Voltage-dependent T-type calcium channel subunit alpha-1H (O95180 whole entry): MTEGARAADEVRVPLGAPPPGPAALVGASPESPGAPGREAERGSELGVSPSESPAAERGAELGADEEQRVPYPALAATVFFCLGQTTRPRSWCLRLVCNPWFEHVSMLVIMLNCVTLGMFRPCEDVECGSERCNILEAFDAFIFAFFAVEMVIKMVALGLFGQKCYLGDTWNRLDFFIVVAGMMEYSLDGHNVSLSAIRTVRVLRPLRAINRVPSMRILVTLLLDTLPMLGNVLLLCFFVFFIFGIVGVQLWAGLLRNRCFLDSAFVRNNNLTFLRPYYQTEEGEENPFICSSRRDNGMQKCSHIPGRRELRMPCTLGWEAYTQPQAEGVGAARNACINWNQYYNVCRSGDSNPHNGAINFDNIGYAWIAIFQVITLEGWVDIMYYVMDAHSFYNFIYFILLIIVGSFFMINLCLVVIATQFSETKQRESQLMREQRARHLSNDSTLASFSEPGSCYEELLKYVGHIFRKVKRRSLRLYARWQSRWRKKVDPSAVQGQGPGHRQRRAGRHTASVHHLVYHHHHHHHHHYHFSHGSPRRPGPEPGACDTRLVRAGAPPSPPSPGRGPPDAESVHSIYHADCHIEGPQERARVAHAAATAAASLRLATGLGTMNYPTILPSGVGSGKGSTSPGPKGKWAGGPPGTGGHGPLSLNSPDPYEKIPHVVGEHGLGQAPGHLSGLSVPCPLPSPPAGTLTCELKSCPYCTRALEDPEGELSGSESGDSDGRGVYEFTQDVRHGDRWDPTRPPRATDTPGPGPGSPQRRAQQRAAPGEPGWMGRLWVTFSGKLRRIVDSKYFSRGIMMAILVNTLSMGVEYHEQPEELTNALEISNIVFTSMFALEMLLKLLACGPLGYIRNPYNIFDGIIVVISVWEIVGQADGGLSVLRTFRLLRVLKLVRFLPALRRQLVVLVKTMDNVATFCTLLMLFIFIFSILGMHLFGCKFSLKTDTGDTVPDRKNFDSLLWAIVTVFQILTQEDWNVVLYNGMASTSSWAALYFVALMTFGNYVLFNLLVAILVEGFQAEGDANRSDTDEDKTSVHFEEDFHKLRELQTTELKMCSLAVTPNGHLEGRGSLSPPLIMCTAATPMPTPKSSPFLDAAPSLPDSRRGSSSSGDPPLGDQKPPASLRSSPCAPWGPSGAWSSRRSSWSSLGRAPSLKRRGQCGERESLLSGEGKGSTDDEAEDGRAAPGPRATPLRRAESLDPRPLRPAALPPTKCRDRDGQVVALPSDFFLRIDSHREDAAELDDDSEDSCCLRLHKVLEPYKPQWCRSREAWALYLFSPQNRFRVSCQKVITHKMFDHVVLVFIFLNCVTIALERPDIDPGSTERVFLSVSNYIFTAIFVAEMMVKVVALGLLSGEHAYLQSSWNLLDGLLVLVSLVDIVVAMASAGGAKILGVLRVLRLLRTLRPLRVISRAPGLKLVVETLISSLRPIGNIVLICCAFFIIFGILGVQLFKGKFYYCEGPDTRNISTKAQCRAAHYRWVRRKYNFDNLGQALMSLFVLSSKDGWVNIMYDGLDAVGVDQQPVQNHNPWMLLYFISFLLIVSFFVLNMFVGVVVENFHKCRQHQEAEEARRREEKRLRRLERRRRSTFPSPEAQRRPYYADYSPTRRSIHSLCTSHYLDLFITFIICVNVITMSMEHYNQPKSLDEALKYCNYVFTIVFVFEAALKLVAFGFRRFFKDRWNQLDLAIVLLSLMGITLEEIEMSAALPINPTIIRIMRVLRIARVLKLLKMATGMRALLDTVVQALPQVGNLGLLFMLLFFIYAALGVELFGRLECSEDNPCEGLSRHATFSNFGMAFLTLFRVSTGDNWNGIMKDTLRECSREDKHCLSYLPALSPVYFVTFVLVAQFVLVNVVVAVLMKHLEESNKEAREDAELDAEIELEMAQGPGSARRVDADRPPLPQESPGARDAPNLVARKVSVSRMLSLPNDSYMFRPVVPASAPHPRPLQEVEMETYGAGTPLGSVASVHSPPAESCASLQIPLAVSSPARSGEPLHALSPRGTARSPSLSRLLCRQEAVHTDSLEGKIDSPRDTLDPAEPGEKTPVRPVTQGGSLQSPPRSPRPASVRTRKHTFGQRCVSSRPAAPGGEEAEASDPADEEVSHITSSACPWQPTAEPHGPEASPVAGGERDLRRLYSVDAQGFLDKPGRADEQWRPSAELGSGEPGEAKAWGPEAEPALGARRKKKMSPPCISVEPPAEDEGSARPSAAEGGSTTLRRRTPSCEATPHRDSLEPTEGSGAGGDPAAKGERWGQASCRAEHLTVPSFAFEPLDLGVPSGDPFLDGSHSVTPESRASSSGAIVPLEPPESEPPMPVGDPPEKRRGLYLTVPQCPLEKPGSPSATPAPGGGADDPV
# [13] = inhibitors of SNCA 5'UTR-driven reporter translation, confirmation, H4 neuroglioma cells, luminescence (AID 1988); format: functional, cell-based
# [14] = inhibitors of firefly luciferase expression or activity, dose response, H4 neuroglioma cells, luminescence (AID 1990); format: functional, cell-based
# P388 = test: cells; format: functional; conditions: Mus musculus
# P388/ADR = test: cells; format: functional; conditions: Mus musculus
# SN12K1 = test: cells; format: functional; conditions: Homo sapiens
smiles,measurement,setting,value
CCc1cc(-c2ccc3c(c2)COc2c4ccccc4nn2-3)on1,AC50,[1],22.7 µM (active)
same,AC50,[2],> 52 µM (inactive)
same,AC50,[3],40.4 µM (active)
same,AC50,[4],47.8 µM (active)
Nn1c(SC/C=C/c2ccccc2)nnc1-c1cccnc1,AC50,[5],0.311 µM (active)
CC(=O)c1ccc(N2CCN(C(=O)c3ccc4c(c3)OCO4)CC2)cc1,AC50,[5],0.155 µM (active)
CC1CCC2(CC1)NC(=O)N(NC(=O)CCl)C2=O (stereo not given),EC50,H4,> 120 µM (not active)
same,EC50,[6],34.7 µM (active)
same,EC50,[7],> 120 µM (not active)
CCNC(=O)[C@H]1[C@H](CO)[C@H]2Cn3c(ccc(-c4ccccc4)c3=O)[C@H]2N1C(=O)Cc1cccnc1,AC50,[5],16.3 µM (active)
CCOc1ccc(-n2cc(-c3ccccc3)c3c(N4CCOCC4)ncnc32)cc1,IC50,H9c2,> 79 µM (inactive)
same,AC50,[1],56.7 µM (active)
same,AC50,[2],36.1 µM (active)
same,AC50,[3],47.3 µM (active)
same,AC50,[4],> 52 µM (inactive)
CCc1c(C(=O)NNC(=S)Nc2ccc(S(=O)(=O)Nc3ncccn3)cc2)csc1C,EC50,[8],12.5 µM (active)
same,AC50,[9],89.7 µM (active)
same,EC50,[10],> 300 µM (not active)
O=C(NC(=S)NC1CCCCCC1)c1cncc(Br)c1,EC50,H4,7.48 µM (active)
same,EC50,[6],39.6 µM (active)
same,EC50,[7],76.3 µM (active)
CCOC(=O)c1c(C)[nH]c(C)c1C(=O)Cn1nnc(-c2ccccc2C)n1,EC50,[11],18.3 µM (active)
same,EC50,[12],5.31 µM (active)
same,EC50,[13],> 120 µM (not active)
same,EC50,[14],> 60 µM (not active)
COc1cc2c(c(OC)c1OC)C(=O)NCCC2,GI50,P388,> 100 µM (inactive)
same,GI50,P388/ADR,> 100 µM (inactive)
same,GI50,SN12K1,> 100 µM (inactive)
O=C(CSc1nc2c(c(=O)n1-c1ccc(Cl)cc1)SCC2)N1CCOCC1,AC50,[5],6.81 µM (active)
CC1Cc2nc(SCC(=O)N3CCOCC3)n(-c3ccccc3)c(=O)c2S1 (stereo not given),AC50,[5],5.31 µM (active)
